The source of these data is patent US8188101B2 (AstraZeneca AB, priority 2008, dated 2012).

One test has as its system Aβ42 release. In words: Aβ release in cells stably expressing APPswe, Meso Scale Discovery electrochemiluminescence assay. The format is cell-based, Human. The settings on record: HEK or SH-SY5Y cells stably expressing APPswe, 4-6 hours incubation with test compound. The procedure: The level of activity of the compounds on Aβ release was tested using the following method:
Compounds were diluted in 100% DMSO and stored at […] prior to use. Human Embryonic Kidney (HEK) or Human Neuroblastoma (SH-SY5Y) cell lines stably expressing APP with the Swedish mutation (APPswe) were cultured using Dulbecco's Modified Eagles medium (DMEM) supplied with […] glucose, Na-pyruvate and GlutaMAX with 10% FBS, 100 U/ml penicillin-streptomycin (PEST) respectively, 1× non-essential amino acids (NEAA), […] Hepes, 100 μg/ml Zeocine. Cells at about 80% confluence were washed with PBS, detached from culture flasks using 1× Trypsin/EDTA diluted in PBS, re-suspended in cell media and plated in 384-well poly-d-lysine coated cell culture plates at about 10000-15000 cells/well, in 25 μL cell media. Optionally, cryo-preserved cells (frozen and stored at −140° C. in 90% cell media and 10% DMSO) were thawed, washed and plated as above. Next the cells were incubated for 15-24 h at 37° C. and 5% CO2, after which cell medium was changed. Fresh medium containing test compound diluted ×200 from prepared compound plate was added to the cells before further incubation for 4-6 hours at 37° C. and 5% CO2. After incubation with test compound the amount of Aβ peptides, including Aβ42, Aβ40, Aβ39, Aβ38 and Aβ37, secreted to the cell medium was analyzed using the electrochemiluminescence assay technology from Meso Scale Discovery Technology, in combination with specific antibodies raised against the different Aβ peptides. Potential cytotoxic effects of the compounds were usually assayed by measuring the ATP content (ViaLight) from cell lysate.
For `Cc1nccn1-c1ccc(Nc2nc3c(c(C(C)c4ccccc4)n2)CN(C)CC3)cc1` (single isomer, unassigned) [Example 70, 6-Methyl-N-(4-(2-methyl-1H-imidazol-1-yl)phenyl)-4-(1-phenylethyl)-5,6,7,8-tetrahydropyrido[4,3-d]pyrimidin-2-amine], the pIC50 was found to be 6.2.

As to `Cc1nccn1-c1ccc(Nc2nc3c(c(C(C)c4ccccc4)n2)CN(C)CC3)cc1` (single isomer, unassigned) [Example 71, 6-Methyl-N-(4-(2-methyl-1H-imidazol-1-yl)phenyl)-4-(1-phenylethyl)-5,6,7,8-tetrahydropyrido[4,3-d]pyrimidin-2-amine], the negative logarithm of the IC50 (pIC50) came out at 6.6.

The same test, now with this note: Homo sapiens, SH-SY5Y, HEK or SH-SY5Y cells stably expressing APPswe, 4-6 hours incubation with test compound.
With `OCCN(c1ccccc1)c1nc(Nc2ccc(-c3cnco3)cc2)nc2c1CNCC2` [Example 1, 2-((2-(4-(Oxazol-5-yl)phenylamino)-5,6,7,8-tetrahydropyrido[4,3-d]pyrimidin-4-yl)(phenyl)amino)ethanol], the IC50 is 1000 nM.

Turning to `CN1CCc2nc(Nc3ccc(-c4cnco4)cc3)nc(N(CCO)c3ccccc3)c2C1` [Example 2, 2-((6-Methyl-2-(4-(oxazol-5-yl)phenylamino)-5,6,7,8-tetrahydropyrido[4,3-d]pyrimidin-4-yl)(phenyl)amino)ethanol], the IC50 was 398 nM.

As for `c1ccc(Nc2nc(Nc3ccc(-c4cnco4)cc3)nc3c2CNCC3)cc1` [Example 3, N2-(4-(Oxazol-5-yl)phenyl)-N4-phenyl-5,6,7,8-tetrahydropyrido[4,3-d]pyrimidine-2,4-diamine], the IC50 is 1000 nM.

As for `CN1CCc2nc(Nc3ccc(-c4cnco4)cc3)nc(Nc3ccccc3)c2C1` [Example 4, 6-Methyl-N2-(4-(oxazol-5-yl)phenyl)-N4-phenyl-5,6,7,8-tetrahydropyrido[4,3-d]pyrimidine-2,4-diamine], the IC50 was 316 nM.

On to `c1ccc(CNc2nc(Nc3ccc(-c4cnco4)cc3)nc3c2CCNC3)cc1` [Example 5, N4-Benzyl-N2-(4-(oxazol-5-yl)phenyl)-5,6,7,8-tetrahydropyrido[3,4-d]pyrimidine-2,4-diamine], for which the IC50 is 1000 nM.

As to `c1ccc(CNc2nc(Nc3ccc(-c4cnco4)cc3)nc3c2CNCC3)cc1` [Example 6, N4-Benzyl-N2-(4-(oxazol-5-yl)phenyl)-5,6,7,8-tetrahydropyrido[4,3-d]pyrimidine-2,4-diamine], the concentration for half-maximal inhibition (IC50) is 1260 nM.

Consider `COc1cc(Nc2nc3c(c(Nc4ccccc4)n2)CNCC3)ccc1-n1cnc(C)c1` [Example 7, N2-(3-Methoxy-4-(4-methyl-1H-imidazol-1-yl)phenyl)-N4-phenyl-5,6,7,8-tetrahydropyrido[4,3-d]pyrimidine-2,4-diamine], for which the half-inhibitory concentration (IC50) is 100 nM.

Take `COc1cc(Nc2nc3c(c(Nc4ccccc4)n2)CN(CCO)CC3)ccc1-n1cnc(C)c1` [Example 8, 2-(2-(3-Methoxy-4-(4-methyl-1H-imidazol-1-yl)phenylamino)-4-(phenylamino)-7,8-dihydropyrido[4,3-d]pyrimidin-6(5H)-yl)ethanol]: the IC50 is 79.4 nM.

For the compound `Cc1nccn1-c1ccc(Nc2nc3c(c(N4c5ccccc5C[C@H]4CO)n2)CN(C)CC3)cc1` [Example 9, (S)-(1-(6-methyl-2-(4-(2-methyl-1H-imidazol-1-yl)phenylamino)-5,6,7,8-tetrahydropyrido[4,3-d]pyrimidin-4-yl)indolin-2-yl)methanol], the IC50 was 1580 nM.

Regarding `Cc1nccn1-c1ccc(Nc2nc3c(c(N[C@@H]4CC5CCC4C5)n2)CN(C)CC3)cc1` (stereo partly drawn) [Example 10, N4-((2R)-bicyclo[2.2.1]heptan-2-yl)-6-methyl-N2-(4-(2-methyl-1H-imidazol-1-yl)phenyl)-5,6,7,8-tetrahydropyrido[4,3-d]pyrimidine-2,4-diamine], the IC50 is 501 nM.

With `Cc1nccn1-c1ccc(Nc2nc3c(c(N(C)C4CCCCC4)n2)CN(C)CC3)cc1` [Example 11, N4-Cyclohexyl-N4,6-dimethyl-N2-(4-(2-methyl-1H-imidazol-1-yl)phenyl)-5,6,7,8-tetrahydropyrido[4,3-d]pyrimidine-2,4-diamine], the IC50 is 398 nM.

Turning to `c1ccc(COc2nc(Nc3ccc(-c4cnco4)cc3)nc3c2CNCC3)cc1` [Example 12, 4-(Benzyloxy)-N-(4-(oxazol-5-yl)phenyl)-5,6,7,8-tetrahydropyrido[4,3-d]pyrimidin-2-amine], the IC50 was 3980 nM.

With `Cc1nccn1-c1ccc(Nc2nc3c(c(N4c5ccccc5C[C@@H]4CO)n2)CN(C)CC3)cc1` [Example 13, (R)-(1-(6-Methyl-2-(4-(2-methyl-1H-imidazol-1-yl)phenylamino)-5,6,7,8-tetrahydropyrido[4,3-d]pyrimidin-4-yl)indolin-2-yl)methanol], the IC50 is 3160 nM.

In the case of `CCCN1CCc2nc(Nc3ccc(-c4cnco4)cc3)nc(N(CCO)c3ccccc3)c2C1` [Example 14, 2-((2-(4-(Oxazol-5-yl)phenylamino)-6-propyl-5,6,7,8-tetrahydropyrido[4,3-d]pyrimidin-4-yl)(phenyl)amino)ethanol], the IC50 was 126 nM.

Turning to `CCC(=O)N1CCc2nc(Nc3ccc(-c4cnco4)cc3)nc(N(CCO)c3ccccc3)c2C1` [Example 15, 1-(4-((2-Hydroxyethyl)(phenyl)amino)-2-(4-(oxazol-5-yl)phenylamino)-7,8-dihydropyrido[4,3-d]pyrimidin-6(5H)-yl)propan-1-one], the IC50 is 398 nM.

For the compound `O=C(C1CC1)N1CCc2nc(Nc3ccc(-c4cnco4)cc3)nc(N(CCO)c3ccccc3)c2C1` [Example 16, Cyclopropyl(4-((2-hydroxyethyl)(phenyl)amino)-2-(4-(oxazol-5-yl)phenylamino)-7,8-dihydropyrido[4,3-d]pyrimidin-6(5H)-yl)methanone], the IC50 is 631 nM.

As for `CN(C)CC(=O)N1CCc2nc(Nc3ccc(-c4cnco4)cc3)nc(N(CCO)c3ccccc3)c2C1` [Example 17, 2-(Dimethylamino)-1-(4-((2-hydroxyethyl)(phenyl)amino)-2-(4-(oxazol-5-yl)phenylamino)-7,8-dihydropyrido[4,3-d]pyrimidin-6(5H)-yl)ethanone], the IC50 is 1580 nM.

On to `COCC(=O)N1CCc2nc(Nc3ccc(-c4cnco4)cc3)nc(N(CCO)c3ccccc3)c2C1` [Example 18, 1-(4-((2-Hydroxyethyl)(phenyl)amino)-2-(4-(oxazol-5-yl)phenylamino)-7,8-dihydropyrido[4,3-d]pyrimidin-6(5H)-yl)-2-methoxyethanone], for which the IC50 was 2510 nM.

As for `O=C(CO)N1CCc2nc(Nc3ccc(-c4cnco4)cc3)nc(N(CCO)c3ccccc3)c2C1` [Example 19, 2-Hydroxy-1-(4-((2-hydroxyethyl)(phenyl)amino)-2-(4-(oxazol-5-yl)phenylamino)-7,8-dihydropyrido[4,3-d]pyrimidin-6(5H)-yl)ethanone], the IC50 was 794 nM.

For the compound `C[C@H](O)C(=O)N1CCc2nc(Nc3ccc(-c4cnco4)cc3)nc(N(CCO)c3ccccc3)c2C1` [Example 20, (S)-2-Hydroxy-1-(4-((2-hydroxyethyl)(phenyl)amino)-2-(4-(oxazol-5-yl)phenylamino)-7,8-dihydropyrido[4,3-d]pyrimidin-6(5H)-yl)propan-1-one], the IC50 was 1000 nM.

Take `CS(=O)(=O)N1CCc2nc(Nc3ccc(-c4cnco4)cc3)nc(N(CCO)c3ccccc3)c2C1` [Example 21, 2-((6-(Methylsulfonyl)-2-(4-(oxazol-5-yl)phenylamino)-5,6,7,8-tetrahydropyrido[4,3-d]pyrimidin-4-yl)(phenyl)amino)ethanol]: the IC50 is 1260 nM.

What is called pIC50 is the negative decadic logarithm of the IC50, by convention in mol/L. In general, IC50 refers to the concentration at which inhibition is half-maximal.
